PubChem BioAssay (NCI)
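All cell lines were grown in 96-well plates and treated with compound for 48 hours. The concentration for 50% growth inhibition is given as GI50. TGI denotes the concentration required for complete inhibition of growth.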

Legend:
Test in all cases: inhibition of tumour cell growth, NCI panel, 48 h
NCI-H460 lung = test system: NCI-H460 lung
DU-145 prostate = test system: DU-145 prostate
786-0 renal = test system: 786-0 renal
SF-295 CNS = test system: SF-295 CNS
UACC-257 melanoma = test system: UACC-257 melanoma
HOP-92 NSCLC = test system: HOP-92 NSCLC
OVCAR-8 ovarian = test system: OVCAR-8 ovarian
OVCAR-5 ovarian = test system: OVCAR-5 ovarian
MDA-MB-231 breast = test system: MDA-MB-231 breast
KM12 colon = test system: KM12 colon
HCT-116 colon = test system: HCT-116 colon
OVCAR-4 ovarian = test system: OVCAR-4 ovarian
NCI-H23 lung = test system: NCI-H23 lung
T-47D breast = test system: T-47D breast
COLO 205 colon = test system: COLO 205 colon
SK-MEL-5 melanoma = test system: SK-MEL-5 melanoma
TK-10 renal = test system: TK-10 renal
SK-OV-3 ovarian = test system: SK-OV-3 ovarian
LOX IMVI melanoma = test system: LOX IMVI melanoma
PC-3 prostate = test system: PC-3 prostate
HCC-2998 colon = test system: HCC-2998 colon
RPMI-8226 leukemia = test system: RPMI-8226 leukemia
SF-268 CNS = test system: SF-268 CNS
MOLT-4 leukemia = test system: MOLT-4 leukemia
SW-620 colon = test system: SW-620 colon
SN12C renal = test system: SN12C renal
HOP-62 NSCLC = test system: HOP-62 NSCLC
A498 renal = test system: A498 renal
IGROV1 ovarian = test system: IGROV1 ovarian
UACC-62 melanoma = test system: UACC-62 melanoma
U251 CNS = test system: U251 CNS
NCI/ADR-RES ovarian = test system: NCI/ADR-RES ovarian
CCRF-CEM leukemia = test system: CCRF-CEM leukemia
CAKI-1 renal = test system: CAKI-1 renal
SNB-75 CNS = test system: SNB-75 CNS
BT-549 breast = test system: BT-549 breast
MCF7 breast = test system: MCF7 breast
SNB-19 CNS = test system: SNB-19 CNS
SF-539 CNS = test system: SF-539 CNS
K-562 leukemia = test system: K-562 leukemia
A549 NSCLC = test system: A549 NSCLC
NCI-H226 lung = test system: NCI-H226 lung
HS 578T breast = test system: HS 578T breast
M14 melanoma = test system: M14 melanoma
MDA-MB-435 = test system: MDA-MB-435
NCI-H522 lung = test system: NCI-H522 lung
SK-MEL-28 melanoma = test system: SK-MEL-28 melanoma
HL-60(TB) leukemia = test system: HL-60(TB) leukemia
SK-MEL-2 melanoma = test system: SK-MEL-2 melanoma
OVCAR-3 ovarian = test system: OVCAR-3 ovarian
HT29 colon = test system: HT29 colon
EKVX NSCLC = test system: EKVX NSCLC
MALME-3M melanoma = test system: MALME-3M melanoma
ACHN renal = test system: ACHN renal
HCT-15 colon = test system: HCT-15 colon
UO-31 renal = test system: UO-31 renal
RXF 393 renal = test system: RXF 393 renal

Question: What does the source list for `COc1cc2c3c(n(CCCN4CCCC(O)C4)c(=O)c2cc1OC)-c1cc2c(cc1C3=O)OCO2` (stereo unspecified)?
Answer: GI50 (NCI-H460 lung): < 5 nM; TGI (NCI-H460 lung): 6130 nM; GI50 (DU-145 prostate): < 5 nM; TGI (DU-145 prostate): 592 nM; GI50 (786-0 renal): 27.7 nM; TGI (786-0 renal): 115 nM; GI50 (SF-295 CNS): < 5 nM; TGI (SF-295 CNS): 2650 nM; GI50 (UACC-257 melanoma): 7740 nM; TGI (UACC-257 melanoma): 15100 nM; GI50 (HOP-92 NSCLC): 31.2 nM; TGI (HOP-92 NSCLC): 901 nM; GI50 (OVCAR-8 ovarian): 587 nM; TGI (OVCAR-8 ovarian): 1450 nM; GI50 (OVCAR-5 ovarian): 931 nM; TGI (OVCAR-5 ovarian): 1710 nM; GI50 (MDA-MB-231 breast): 791 nM; TGI (MDA-MB-231 breast): 1620 nM; GI50 (KM12 colon): 333 nM; TGI (KM12 colon): 1490 nM; GI50 (HCT-116 colon): 15.7 nM; TGI (HCT-116 colon): 925 nM; GI50 (OVCAR-4 ovarian): 1070 nM; TGI (OVCAR-4 ovarian): 2680 nM; GI50 (NCI-H23 lung): 42.1 nM; TGI (NCI-H23 lung): 775 nM; GI50 (T-47D breast): 1160 nM; TGI (T-47D breast): 3200 nM; GI50 (COLO 205 colon): 2510 nM; TGI (COLO 205 colon): 6330 nM; GI50 (SK-MEL-5 melanoma): 318 nM; TGI (SK-MEL-5 melanoma): 20600 nM; GI50 (TK-10 renal): 6380 nM; TGI (TK-10 renal): 14200 nM; GI50 (SK-OV-3 ovarian): 3800 nM; TGI (SK-OV-3 ovarian): 27200 nM; GI50 (LOX IMVI melanoma): 21.3 nM; TGI (LOX IMVI melanoma): 849 nM; GI50 (PC-3 prostate): 87.9 nM; TGI (PC-3 prostate): 1150 nM; GI50 (HCC-2998 colon): 76.3 nM; TGI (HCC-2998 colon): 1050 nM; GI50 (RPMI-8226 leukemia): 96.1 nM; TGI (RPMI-8226 leukemia): 447 nM; GI50 (SF-268 CNS): 593 nM; TGI (SF-268 CNS): 1940 nM; GI50 (MOLT-4 leukemia): < 5 nM; TGI (MOLT-4 leukemia): 678 nM; GI50 (SW-620 colon): 47 nM; TGI (SW-620 colon): 7610 nM; GI50 (SN12C renal): 162 nM; TGI (SN12C renal): 964 nM; GI50 (HOP-62 NSCLC): 19.4 nM; TGI (HOP-62 NSCLC): 74.6 nM; GI50 (A498 renal): 7730 nM; TGI (A498 renal): 25100 nM; GI50 (IGROV1 ovarian): 836 nM; TGI (IGROV1 ovarian): 8870 nM; GI50 (UACC-62 melanoma): 5010 nM; TGI (UACC-62 melanoma): 12800 nM; GI50 (U251 CNS): 6.33 nM; TGI (U251 CNS): 854 nM; GI50 (NCI/ADR-RES ovarian): 50.3 nM; TGI (NCI/ADR-RES ovarian): 1060 nM; GI50 (CCRF-CEM leukemia): 7.38 nM; TGI (CCRF-CEM leukemia): 278 nM; GI50 (CAKI-1 renal): 6.85 nM; TGI (CAKI-1 renal): 1360 nM; GI50 (SNB-75 CNS): 546 nM; TGI (SNB-75 CNS): 1570 nM; GI50 (BT-549 breast): 898 nM; TGI (BT-549 breast): 3210 nM; GI50 (MCF7 breast): 10.7 nM; TGI (MCF7 breast): 1310 nM; GI50 (SNB-19 CNS): 600 nM; TGI (SNB-19 CNS): 10500 nM; GI50 (SF-539 CNS): < 5 nM; TGI (SF-539 CNS): 38.4 nM; GI50 (K-562 leukemia): 88.1 nM; TGI (K-562 leukemia): 6870 nM; GI50 (A549 NSCLC): 642 nM; TGI (A549 NSCLC): 1510 nM; GI50 (NCI-H226 lung): 1420 nM; TGI (NCI-H226 lung): 4310 nM; GI50 (HS 578T breast): 874 nM; TGI (HS 578T breast): 2110 nM; GI50 (M14 melanoma): 29.7 nM; TGI (M14 melanoma): 972 nM; GI50 (MDA-MB-435): 836 nM; TGI (MDA-MB-435): 2980 nM; GI50 (NCI-H522 lung): 2340 nM; TGI (NCI-H522 lung): 8910 nM; GI50 (SK-MEL-28 melanoma): 885 nM; TGI (SK-MEL-28 melanoma): 2280 nM; GI50 (HL-60(TB) leukemia): 597 nM; TGI (HL-60(TB) leukemia): 1320 nM; GI50 (SK-MEL-2 melanoma): 2680 nM; TGI (SK-MEL-2 melanoma): 28400 nM; GI50 (OVCAR-3 ovarian): 2140 nM; TGI (OVCAR-3 ovarian): 4710 nM; GI50 (HT29 colon): 731 nM; TGI (HT29 colon): 9940 nM; GI50 (EKVX NSCLC): 1260 nM; TGI (EKVX NSCLC): 2540 nM; GI50 (MALME-3M melanoma): 5710 nM; TGI (MALME-3M melanoma): 14800 nM; GI50 (ACHN renal): < 5 nM; TGI (ACHN renal): 320 nM; GI50 (HCT-15 colon): 709 nM; TGI (HCT-15 colon): 1700 nM; GI50 (UO-31 renal): 960 nM; TGI (UO-31 renal): 2240 nM

Question: Which results are given for `N#CCc1nc(-c2cc3c(ccc4ccccc43)oc2=O)cs1`?
Answer: TGI (NCI-H460 lung): > 100000 nM; TGI (DU-145 prostate): > 100000 nM; TGI (786-0 renal): 51600 nM; TGI (SF-295 CNS): 71200 nM; TGI (UACC-257 melanoma): 75700 nM; TGI (HOP-92 NSCLC): 44500 nM; TGI (OVCAR-8 ovarian): > 100000 nM; TGI (OVCAR-5 ovarian): > 100000 nM; TGI (MDA-MB-231 breast): 39000 nM; TGI (KM12 colon): > 100000 nM; TGI (HCT-116 colon): > 100000 nM; TGI (OVCAR-4 ovarian): 60400 nM; TGI (T-47D breast): > 100000 nM; TGI (COLO 205 colon): > 100000 nM; TGI (SK-MEL-5 melanoma): > 100000 nM; TGI (TK-10 renal): 38900 nM; TGI (SK-OV-3 ovarian): 77000 nM; TGI (LOX IMVI melanoma): > 100000 nM; TGI (RXF 393 renal): 74000 nM; TGI (PC-3 prostate): > 100000 nM; TGI (HCC-2998 colon): > 100000 nM; TGI (RPMI-8226 leukemia): > 100000 nM; TGI (SF-268 CNS): > 100000 nM; TGI (MOLT-4 leukemia): > 100000 nM; TGI (SW-620 colon): > 100000 nM; TGI (SN12C renal): > 100000 nM; TGI (HOP-62 NSCLC): 32200 nM; TGI (IGROV1 ovarian): 43700 nM; TGI (UACC-62 melanoma): 68400 nM; TGI (U251 CNS): 38500 nM; TGI (NCI/ADR-RES ovarian): 70200 nM; TGI (CCRF-CEM leukemia): > 100000 nM; TGI (CAKI-1 renal): > 100000 nM; TGI (SNB-75 CNS): 20400 nM; TGI (BT-549 breast): 31500 nM; TGI (MCF7 breast): > 100000 nM; TGI (SNB-19 CNS): 36400 nM; TGI (SF-539 CNS): 51400 nM; TGI (K-562 leukemia): > 100000 nM; TGI (A549 NSCLC): > 100000 nM; TGI (NCI-H226 lung): 81200 nM; TGI (HS 578T breast): 63400 nM; TGI (M14 melanoma): > 100000 nM; TGI (MDA-MB-435): > 100000 nM; TGI (NCI-H522 lung): 27400 nM; TGI (SK-MEL-28 melanoma): > 100000 nM; TGI (HL-60(TB) leukemia): > 100000 nM; TGI (SK-MEL-2 melanoma): 72400 nM; TGI (HT29 colon): > 100000 nM; TGI (EKVX NSCLC): > 100000 nM; TGI (MALME-3M melanoma): > 100000 nM; TGI (ACHN renal): 79100 nM; TGI (HCT-15 colon): > 100000 nM; TGI (UO-31 renal): > 100000 nM
